Source: US12350262B2, “Methods of treatment for cystic fibrosis” (Vertex Pharmaceuticals Incorporated, priority 2017, dated 2025)

Assays:
[1] = test system: healthy subjects; test: Safety and Efficacy Study 1, Part 1 with healthy subjects; format: in vivo, human; details: interim data
[2] = target: T1, F508del-CFTR in human bronchial epithelial (HBE) cells (Homo sapiens, UniProt P13569, DEL508-508); test: Ussing chamber assay; format: cell-based; details: chloride current
T1 construct: Non-CF and CF airway epithelia were isolated from bronchial tissue; endogenous in cells; host or cells: primary CF human bronchial epithelial (HBE) cells
T1 sequence (P13569 with tags, fused parts or gaps DEL508-508): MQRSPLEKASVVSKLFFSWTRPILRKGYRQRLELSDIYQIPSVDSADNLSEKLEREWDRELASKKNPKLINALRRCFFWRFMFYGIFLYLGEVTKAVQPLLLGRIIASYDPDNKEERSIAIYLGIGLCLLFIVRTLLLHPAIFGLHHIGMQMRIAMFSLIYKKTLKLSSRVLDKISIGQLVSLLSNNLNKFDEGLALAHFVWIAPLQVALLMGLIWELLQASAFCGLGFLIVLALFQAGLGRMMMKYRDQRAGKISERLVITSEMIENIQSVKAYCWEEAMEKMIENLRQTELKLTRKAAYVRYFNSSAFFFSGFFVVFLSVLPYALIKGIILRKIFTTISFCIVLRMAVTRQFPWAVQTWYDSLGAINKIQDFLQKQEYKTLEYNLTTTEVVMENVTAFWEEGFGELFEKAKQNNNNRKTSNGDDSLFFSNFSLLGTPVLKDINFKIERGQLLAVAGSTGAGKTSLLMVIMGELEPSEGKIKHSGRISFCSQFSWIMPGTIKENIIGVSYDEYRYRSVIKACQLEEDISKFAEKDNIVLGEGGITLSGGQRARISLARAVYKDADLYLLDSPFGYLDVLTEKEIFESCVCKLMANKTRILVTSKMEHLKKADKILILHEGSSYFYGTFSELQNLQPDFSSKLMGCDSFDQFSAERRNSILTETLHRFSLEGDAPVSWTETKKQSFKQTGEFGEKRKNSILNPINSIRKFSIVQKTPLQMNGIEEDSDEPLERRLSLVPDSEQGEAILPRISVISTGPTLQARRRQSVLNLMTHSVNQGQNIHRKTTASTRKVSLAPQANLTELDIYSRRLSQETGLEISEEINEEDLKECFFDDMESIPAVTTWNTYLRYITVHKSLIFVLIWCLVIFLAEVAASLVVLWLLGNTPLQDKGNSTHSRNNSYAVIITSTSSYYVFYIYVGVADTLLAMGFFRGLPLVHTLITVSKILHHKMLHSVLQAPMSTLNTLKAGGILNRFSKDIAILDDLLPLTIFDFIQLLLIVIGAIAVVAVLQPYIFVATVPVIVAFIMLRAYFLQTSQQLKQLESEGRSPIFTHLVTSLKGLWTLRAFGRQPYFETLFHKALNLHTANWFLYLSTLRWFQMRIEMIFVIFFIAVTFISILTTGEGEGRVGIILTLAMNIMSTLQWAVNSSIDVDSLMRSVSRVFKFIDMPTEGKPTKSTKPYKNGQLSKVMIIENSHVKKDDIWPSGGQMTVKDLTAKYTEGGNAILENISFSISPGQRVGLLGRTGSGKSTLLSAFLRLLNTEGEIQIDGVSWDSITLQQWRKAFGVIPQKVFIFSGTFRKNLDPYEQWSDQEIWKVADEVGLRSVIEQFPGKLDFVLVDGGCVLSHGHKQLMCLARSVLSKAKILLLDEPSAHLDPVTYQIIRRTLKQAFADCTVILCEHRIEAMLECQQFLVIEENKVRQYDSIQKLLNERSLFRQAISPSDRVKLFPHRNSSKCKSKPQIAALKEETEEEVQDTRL
Protocol: Ussing chamber experiments were performed on polarized airway epithelial cells expressing F508del to further characterize the F508del modulators identified in the optical assay above. Non-CF and CF airway epithelia were isolated from bronchial tissue, cultured using methods well known in the art, and plated onto Costar® Snapwell™ filters that were precoated with NIH3T3-conditioned media. After four days the apical media was removed and the cells were grown at an air liquid interface for >14 days prior to use. […] CF-HBE cells were isolated from patients homozygous for F508del (F508del/F508del-HBE) or heterozygous for F508del with a different disease causing mutation on the other allele.
HBE cells grown on Costar® Snapwell™ cell culture inserts were mounted in an Ussing chamber (Physiologic Instruments, Inc., San Diego, CA), and the transepithelial resistance and short-circuit current in the presence of a basolateral to apical Cl^− gradient (ISC) were measured using a voltage-clamp system (Department of Bioengineering, University of Iowa, IA). Briefly, HBE cells were examined under voltage-clamp recording conditions (Vhold=0 mV) at 37° C. […]
A basolateral to apical membrane Cl^− concentration gradient was set up as follows. […] Chloride current was measured to assess the increase in functional CFTR in the cell membrane.

[3] = target: T2, F508del CFTR in NIH3T3 cells (Homo sapiens, UniProt P13569, DEL508-508); test: Membrane potential optical assay (correction assay); format: cell-based
T2 construct: expressed in transfected cells
T2 sequence (P13569 with tags, fused parts or gaps DEL508-508): as above
From the text: An optical assay was employed to measure changes in membrane potential to determine the CFTR modulator properties of compounds. The assay utilized fluorescent voltage sensing dyes to measure changes in membrane potential using a fluorescent plate reader (e.g., FLIPR III, Molecular Devices, Inc.) as a readout for increase in functional F508del in NIH 3T3 cells. The driving force for the response was the creation of a chloride ion gradient in conjunction with channel activation and concurrent with compound treatment by a single liquid addition step after the cells had previously been loaded with a voltage sensing dye.
NIH3T3 mouse fibroblasts stably expressing F508del were used for optical measurements of membrane potential. The cells were maintained at 37° C. in 5% CO2 and 90% humidity in Dulbecco's modified Eagle's medium supplemented with 2 mM glutamine, 10% fetal bovine serum, 1×NEAA, P-ME, 1× pen/strep, and 25 mM HEPES in 175 cm^2 culture flasks. For all optical assays, the cells were seeded at 12,000 cells/well in 384-well matrigel-coated plates. […] The cells were then activated and treated with Compound I. After 18-24 hours, fluorescence from the voltage sensing dye in the cells was measured to assess changes in the membrane potential as a read out for increase in functional F508del CFTR in the NIH3T3 cells.

[4] = Rat pharmacokinetics, single IV and PO dose; format: in vivo, male Sprague Dawley rats; details: single nominal oral dose 3 mg/kg
Protocol: Compound 1 was also administered to male Sprague Dawley rats at single nominal oral dose (PO) of 3 mg/kg as a solution in 5% NMP, 30% PEG400, 10% TPGS, 5% PVP-K30 at 5 mL/kg dose volume.
The study design, sample tracking, data run design and individual plasma sample concentrations were stored using Watson LIMS software, Version 7.4.2 (Thermo Scientific Inc, Waltham, MA). Plasma concentration-time profiles of Compound 1 in Sprague Dawley rats at scheduled (nominal) sampling times were analyzed by noncompartmental pharmacokinetic methods using PK function within Watson LIMS software, Version 7.4.2 (Thermo Scientific Inc, Waltham, MA). Key pharmacokinetic parameters such as “area under the curve” (AUC), from the time of drug administration, time zero, extrapolated to infinity, clearance (CL), and Percent of oral bioavailability (% F) were determined. The AUC values were calculated using the linear trapezoidal rule.

EC50 [2]: < 2000 nM
HBE Max Eff [2]: +++ (means >100%)
Emax ([3]; NIH3T3, relative to Compound II, read-out: % Efficacy): ≥ 100%
EC50 ([3]; NIH3T3 cells expressing F508del, 18-24 hours treatment): < 3000 nM
Rat PO AUC/dose [4]: 9.4 ± 0.7 µg·h/mL/mg/kg
SMILES: Cc1nn(C)cc1S(=O)(=O)NC(=O)c1ccc(-n2ccc(OCC(C)(C)C(F)(F)F)n2)nc1N1C[C@@H](C)CC1(C)C [Compound I, N-(1,3-dimethylpyrazol-4-yl)sulfonyl-6-[3-(3,3,3-trifluoro-2,2-dimethyl-propoxy)pyrazol-1-yl]-2-[(4S)-2,2,4-trimethylpyrrolidin-1-yl]pyridine-3-carboxamide]
safety and tolerability ([1]; multiple doses up to 340 mg for 10 days): safe and well tolerated
safety and tolerability ([1]; single doses up to 360 mg): safe and well tolerated
